Like-named read-outs stand apart in the source and are kept apart here.
Assays:
[1] = test system: Staphylococcus aureus ATCC12600; assay type: cell-based
Method: Spontaneous resistance frequencies in Staphylococcus aureus were determined by plating defined numbers of cells of Staphylococcus aureus ATCC12600 (1×10^8-1×10^12 cfu/plate) on Mueller-Hinton agar containing rifampin, myxopyronin B, or both, and counting numbers of colonies after 14 h at 37° C. Experiments were performed using (a) rifampin at 1×, 2×, or 4× the minimum inhibitory concentration of rifampin administered individually; (b) myxopyronin B at lx, 2×, or 4× the minimum inhibitory concentration of myxopyronin B administered individually; or (c) both rifampin at 1×, 2×, or 4× the minimum inhibitory concentration of rifampin administered individually and myxopyronin B at 1×, 2×, or 4× the minimum inhibitory concentration of myxopyronin B administered individually. All experiments were performed four times, using four different starting cultures.

[2] = test system: Escherichia coli D21f2tolC; assay type: cell-based; conditions: 2xMIC; for resistance rate per generation: MSS-MLE
Method: Spontaneous resistance frequencies in Escherichia coli were determined by plating defined numbers of cells of Escherichia coli D21f2tolC (1×10^8-1×10^12 cfu/plate) on LB agar containing rifampin, myxopyronin B, or both, and counting numbers of colonies after 24 h at 37° C. Experiments were performed using (a) rifampin at 2× the minimum inhibitory concentration of rifampin administered individually; (b) myxopyronin B at 2× the minimum inhibitory concentration of myxopyronin B administered individually; or (c) both rifampin at 2× the minimum inhibitory concentration of rifampin administered individually and myxopyronin B at 2× the minimum inhibitory concentration of myxopyronin B administered individually. All experiments were performed at least five times, using at least five different starting cultures. Resistance rates and 95% confidence intervals were calculated using the Ma-Sandri-Sarkar Maximum Likelihood Estimator (MSS-MLE; [Ma, W, Sandri, GvH., Sarkar, S. (1992. ) J. Appl. Probab. 29, 255-267; Sarkar, S., Ma, W., Sandri, GvH. (1992) Genetica 85, 173-179]) as implemented on the Fluctuation Analysis Calculator (FALCOR; http://www.keshaysingh.org/protocols/FALCOR.html; [Hall, B., Ma, C., Liang, P., Singh, K (2009) Bioinformatics 25, 1564-1565]). Sampling correction was performed as in [Stewart, F., Gordon, D., Levin, B. (1990) Genetics 124, 175-185; Jones, M. (1993) Mutat. Res. 292, 187-189].

Row | SMILES | spontaneous resistance frequency ([1]; 1xMIC) | spontaneous resistance frequency ([1]; 2xMIC) | spontaneous resistance frequency ([1]; 4xMIC) | spontaneous resistance frequency ([1]; mean of 1x, 2x, 4xMIC) | spontaneous resistance frequency [2] | resistance rate per generation [2]
1 | CCCC/C(C)=C/C=C(\C)C(=O)c1c(O)cc([C@H](C)CC/C=C/NC(=O)OC)oc1=O [myxopyronin B] | 4 × 10^−8 | 7 × 10^−8 | 7 × 10^−8 | 6×10^−8 | 8×10^−10 | 3×10^−10 per generation
2 | CO[C@H]1/C=C/O[C@@]2(C)Oc3c(C)c(O)c4c(O)c(c(/C=N/N5CCN(C)CC5)c(O)c4c3C2=O)NC(=O)/C(C)=C\C=C\[C@H](C)[C@H](O)[C@@H](C)[C@@H](O)[C@@H](C)[C@H](OC(C)=O)[C@@H]1C [rifampin] | 5 × 10^−8 | 6×10^−8 | 6 × 10^−8 | 6×10^−8 | 4×10^−9 | 1×10^−9 per generation
3 | CCc1c(Cl)c(O)c(Cl)c(O)c1C(=O)O[C@H]1[C@H](O)[C@H](OC)[C@H](OC/C2=C\C=C\C[C@H](O)/C(C)=C/[C@H](CC)[C@@H](O[C@@H]3OC(C)(C)[C@@H](OC(=O)C(C)C)[C@H](O)[C@@H]3O)/C(C)=C/C(C)=C/C[C@@H]([C@@H](C)O)OC2=O)O[C@@H]1C [lipiarmycin A3] |  | 3×10^−8 |  |  |  | 

Reference: patent publication US9839634B2 (priority 2012, dated 2017)
